The results in this text go back to publication PMC12336832, “A key loop in the catalytic pocket of the PL17 family of alginate lyases determines minimal substrate recognition” (The Journal of Biological Chemistry, 2025).

Structures are written as SMILES.

Test [1] has as its target T1, VaAly17B (Vibrio alginolyticus, UniProt A0A2I3CRW2).
T1 construct: gene N646_4460; N-terminal His tag, E. coli BL21(DE3), plasmid pZLZ05; no signal peptide predicted; theoretical 81,023 Da
T1 sequence (A0A2I3CRW2 1-721): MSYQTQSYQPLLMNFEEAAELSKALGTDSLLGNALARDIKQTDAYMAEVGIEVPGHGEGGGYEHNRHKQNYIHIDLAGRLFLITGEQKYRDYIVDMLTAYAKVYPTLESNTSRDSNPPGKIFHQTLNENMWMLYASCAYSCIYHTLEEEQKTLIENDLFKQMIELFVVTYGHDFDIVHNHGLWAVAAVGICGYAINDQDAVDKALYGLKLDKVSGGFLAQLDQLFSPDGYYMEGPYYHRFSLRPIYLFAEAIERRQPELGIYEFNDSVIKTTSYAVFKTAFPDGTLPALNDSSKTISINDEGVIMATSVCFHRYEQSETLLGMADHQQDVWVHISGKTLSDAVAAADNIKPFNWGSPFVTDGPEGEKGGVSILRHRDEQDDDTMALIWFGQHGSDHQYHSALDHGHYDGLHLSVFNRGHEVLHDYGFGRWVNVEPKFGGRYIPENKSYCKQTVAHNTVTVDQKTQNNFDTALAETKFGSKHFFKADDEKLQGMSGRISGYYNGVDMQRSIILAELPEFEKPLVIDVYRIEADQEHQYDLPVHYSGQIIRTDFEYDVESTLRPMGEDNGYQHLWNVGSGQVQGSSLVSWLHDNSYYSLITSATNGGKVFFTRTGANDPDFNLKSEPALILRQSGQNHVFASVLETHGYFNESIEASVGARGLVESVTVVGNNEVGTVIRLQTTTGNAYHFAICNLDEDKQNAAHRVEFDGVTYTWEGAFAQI
As to the kind of experiment: TBA assay, TLC, gel filtration HPLC, ESI-MS. The class given is biochemical. The note with it: pH 8.0, 200 mM NaCl, 20 °C, 0.3% substrate.

The target in test [2] is T2, VaAly17A (Vibrio alginolyticus, UniProt A0A2I3CRJ2).
T2 construct: gene N646_4459; N-terminal His tag, E. coli BL21(DE3), plasmid pZLZ04; no signal peptide predicted; theoretical 81,525 Da
T2 sequence (A0A2I3CRJ2 1-721): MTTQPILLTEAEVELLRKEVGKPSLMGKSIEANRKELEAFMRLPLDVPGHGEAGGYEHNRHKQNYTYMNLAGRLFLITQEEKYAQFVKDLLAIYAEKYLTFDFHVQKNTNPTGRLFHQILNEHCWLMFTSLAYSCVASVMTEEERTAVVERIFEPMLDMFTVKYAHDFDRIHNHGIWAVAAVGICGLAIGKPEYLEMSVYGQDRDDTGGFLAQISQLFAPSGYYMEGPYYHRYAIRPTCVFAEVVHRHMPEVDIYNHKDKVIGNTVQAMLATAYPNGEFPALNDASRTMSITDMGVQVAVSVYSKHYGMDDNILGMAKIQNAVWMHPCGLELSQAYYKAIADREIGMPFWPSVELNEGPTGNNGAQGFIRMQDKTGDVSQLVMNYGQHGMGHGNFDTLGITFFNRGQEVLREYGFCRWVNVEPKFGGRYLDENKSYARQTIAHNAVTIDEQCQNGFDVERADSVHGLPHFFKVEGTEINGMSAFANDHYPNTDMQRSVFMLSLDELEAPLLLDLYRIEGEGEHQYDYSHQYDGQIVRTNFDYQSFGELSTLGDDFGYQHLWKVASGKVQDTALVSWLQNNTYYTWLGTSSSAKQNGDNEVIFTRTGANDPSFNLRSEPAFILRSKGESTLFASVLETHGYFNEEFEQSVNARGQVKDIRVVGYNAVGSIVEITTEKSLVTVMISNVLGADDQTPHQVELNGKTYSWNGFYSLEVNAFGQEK
Put plainly: TBA assay, TLC, gel filtration HPLC, ESI-MS. In kind it is biochemical. The note with it: pH 8.0, 200 mM NaCl, 30 °C, 0.3% substrate; exolytic, from the nonreducing end. On the technique in general: SEC sorts molecules by how far they enter the pores of the column.

As to `O=C(O)[C@H]1O[C@@H](O[C@H]2[C@H](O)[C@H](O)C(O)O[C@@H]2C(=O)O)[C@@H](O)[C@@H](O)[C@@H]1O` (some centres unmarked) [M2, Dimer-M2], the specific activity entry in test [1] is reported as “VaAly17B could degrade M2 into monomers”. For the compound `O=C(O)[C@H]1O[C@@H](O[C@H]2[C@H](O)[C@H](O)[C@H](O[C@H]3[C@H](O)[C@H](O)C(O)O[C@@H]3C(=O)O)O[C@@H]2C(=O)O)[C@@H](O)[C@@H](O)[C@@H]1O` (some centres unmarked) [M3, Trimer-M3], the specific activity entry in test [2] is “unsaturated M2 was produced when M3 was used as the substrate”.
